From patent EP0897720A1, “Droloxifene for prevention of breast cancer” (Pfizer Products Inc., priority 1997, dated 1999)

Experiments:
[1] = tested on: puberal, female sprague-Dawley rats; test: Anti-uterotrophic effect (modified Dorfman Test); type: in vivo; settings: 3 mg./kg./day by stomach tube, six times weekly over 21 days, 0.25% aqueous agar suspension
Procedure: The anti-uterotrophic effect was determined according to a modified "Dorfman Test" [R. I. Dorfman, Methods in Hormone Research II, p. […]

[2] = tested on: epithelial cells of the uterus; settings: stated as a known side-effect of earlier anti-estrogens; cited from earlier work
[3] = tested on: 7,12-dimethylbenz(a)anthraceneinduced mammary tumor; test: Inhibitory effect on the mammary tumor (DMBA-induced tumor model); type: in vivo, female Sprague-Dawley rat (Hanover breed); settings: 3 mg./kg./day by stomach tube, six times weekly over 28 days; control animals taken as 100%
Procedure: Twice weekly and on the 28th day of testing the number of animals was determined and the tumor surface (mm^2/animal) of the therapy animals and control animals was measured. At the end of testing, the percentage increase of the average tumor surface of the treated animals was determined in comparison to the control animals, the surface of the latter being taken as 100%.

Row | Compound | Uterine Weight compared to Controlled Animals [1] [%] | abnormal growth of uterine epithelial cells [2] | Relative Increase of the Average Tumor Surface [3] [%]
1 | CC/C(=C(/c1ccc(OCCN(CC)CC)cc1)c1cccc(O)c1)c1ccccc1 [Compound 2] | -39 | – | –
2 | CC/C(=C(/c1ccc(OCCNC)cc1)c1cccc(O)c1)c1ccccc1 [Compound 3] | -53 | – | –
3 | CC/C(=C(\c1ccccc1)c1ccc(OCCN(C)C)cc1)c1ccccc1 [Tamoxifen, reference compound] | -40 | causes abnormal growth of uterine epithelial cells | –
4 | CC/C(=C(/c1ccc(OCCN(C)C)cc1)c1cccc(O)c1)c1ccccc1 [Compound 1, 1-[4'-(2-dimethylaminoethoxy)phenyl]-1-(3'-hydroxyphenyl)-2-phenylbut-1-ene] | -42 | – | 23
